The test system of one experiment is MOLM-13. Also on record: method as in PMID 30427680, PMID 34959180, PMID 34694800, PMID 36332882, PMID 38655686. To be noted: reported FLT3 PROTACs, Figure 1; cited from earlier work.
A further experiment concerns the target T1, ULK1 (Homo sapiens, UniProt O75385).
T1 construct: Full-length kinase ORF (Promega, Madison, WI, USA) cloned in frame with a NanoLuc-vector; host or cells: HEK293T
As to the kind of experiment: NanoBRET CELLinib128. It counts as binding. To be noted: 1 µM; 100% no effect, 0% complete tracer displacement. In outline:
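HEK293T cells are transfected with NanoLuc-fused full-length kinase and left 20 h to express. Compound at 1 μM and tracer are added and equilibrated 2 h at 37 °C. Filtered luminescence then yields BRET, expressed relative to tracer and background controls.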
Background: Bioluminescence resonance energy transfer reports proximity on the nanometre scale.

The target of a further experiment is T2, EPHB2 (Homo sapiens, UniProt P29323).
T2 construct: Full-length kinase ORF (Promega, Madison, WI, USA) cloned in frame with a NanoLuc-vector was transfected into HEK293T cells; host or cells: HEK293T
T2 sequence (P29323 19-1055): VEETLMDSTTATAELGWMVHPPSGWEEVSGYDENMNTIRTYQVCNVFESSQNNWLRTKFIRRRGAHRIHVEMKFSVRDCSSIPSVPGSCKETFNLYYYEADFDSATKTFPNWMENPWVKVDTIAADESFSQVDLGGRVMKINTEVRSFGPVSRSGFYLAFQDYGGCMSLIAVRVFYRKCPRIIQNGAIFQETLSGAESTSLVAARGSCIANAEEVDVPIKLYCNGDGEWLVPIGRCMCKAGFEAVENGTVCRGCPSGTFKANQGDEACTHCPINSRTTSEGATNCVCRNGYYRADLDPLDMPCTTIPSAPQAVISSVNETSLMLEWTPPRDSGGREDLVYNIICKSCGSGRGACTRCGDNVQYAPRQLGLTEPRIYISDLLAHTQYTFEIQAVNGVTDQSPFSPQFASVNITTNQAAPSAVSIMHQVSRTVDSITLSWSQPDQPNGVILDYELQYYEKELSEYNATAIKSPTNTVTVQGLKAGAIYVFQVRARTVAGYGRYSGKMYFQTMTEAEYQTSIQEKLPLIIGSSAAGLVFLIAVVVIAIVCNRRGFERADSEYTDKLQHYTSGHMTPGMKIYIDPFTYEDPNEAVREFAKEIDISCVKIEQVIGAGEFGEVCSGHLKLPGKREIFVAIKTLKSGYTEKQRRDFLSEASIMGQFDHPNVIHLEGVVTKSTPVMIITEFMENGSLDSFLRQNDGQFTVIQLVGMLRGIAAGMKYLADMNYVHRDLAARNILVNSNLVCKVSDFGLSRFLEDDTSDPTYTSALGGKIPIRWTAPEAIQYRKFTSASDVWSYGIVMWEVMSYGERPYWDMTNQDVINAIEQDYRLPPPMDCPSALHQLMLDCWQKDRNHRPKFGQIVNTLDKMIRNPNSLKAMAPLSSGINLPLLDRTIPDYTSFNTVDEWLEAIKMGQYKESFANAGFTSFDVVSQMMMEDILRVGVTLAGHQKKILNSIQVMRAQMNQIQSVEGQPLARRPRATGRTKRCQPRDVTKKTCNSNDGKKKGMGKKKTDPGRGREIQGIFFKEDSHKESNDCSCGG
Kind of experiment: NanoBRET CELLinib128. It counts as binding. To be noted: 1 µM; 100% no effect, 0% complete tracer displacement.

The next experiment addresses FGR (Homo sapiens, UniProt P09769). As to the kind of experiment: NanoBRET CELLinib128. To be noted: read-out: Tracer bound.
The target of the next experiment is EPHB1 (Homo sapiens, UniProt P54762). As to the kind of experiment: NanoBRET CELLinib128. To be noted: read-out: Tracer bound.
Chain of EPHB1 (P54762 18-984): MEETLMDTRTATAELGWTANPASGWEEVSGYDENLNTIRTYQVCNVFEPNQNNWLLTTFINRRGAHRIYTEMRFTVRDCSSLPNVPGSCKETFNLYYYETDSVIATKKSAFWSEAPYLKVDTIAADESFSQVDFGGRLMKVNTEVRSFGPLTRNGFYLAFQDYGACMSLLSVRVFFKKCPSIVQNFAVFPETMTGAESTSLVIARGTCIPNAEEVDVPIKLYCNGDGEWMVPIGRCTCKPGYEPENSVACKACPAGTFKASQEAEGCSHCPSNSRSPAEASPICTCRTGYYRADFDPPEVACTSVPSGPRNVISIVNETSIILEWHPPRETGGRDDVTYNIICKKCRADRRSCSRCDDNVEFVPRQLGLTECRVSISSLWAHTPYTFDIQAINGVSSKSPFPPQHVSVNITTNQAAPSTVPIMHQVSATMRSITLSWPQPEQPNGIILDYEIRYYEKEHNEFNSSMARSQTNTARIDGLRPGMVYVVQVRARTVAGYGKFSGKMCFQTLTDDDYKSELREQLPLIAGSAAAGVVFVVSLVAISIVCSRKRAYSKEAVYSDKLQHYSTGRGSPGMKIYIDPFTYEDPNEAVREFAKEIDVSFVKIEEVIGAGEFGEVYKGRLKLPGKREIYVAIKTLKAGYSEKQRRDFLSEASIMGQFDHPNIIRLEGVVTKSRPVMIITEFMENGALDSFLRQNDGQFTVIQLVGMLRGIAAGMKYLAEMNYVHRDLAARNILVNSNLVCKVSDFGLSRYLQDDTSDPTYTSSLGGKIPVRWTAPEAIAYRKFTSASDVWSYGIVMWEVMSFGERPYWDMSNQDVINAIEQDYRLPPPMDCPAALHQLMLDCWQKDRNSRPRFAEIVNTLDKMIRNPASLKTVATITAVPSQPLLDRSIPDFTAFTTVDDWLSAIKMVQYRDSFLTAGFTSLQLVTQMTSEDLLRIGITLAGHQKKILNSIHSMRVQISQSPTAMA
For another experiment, the target named is CAMK1 (Homo sapiens, UniProt Q14012). As to the kind of experiment: NanoBRET CELLinib128. Particulars: read-out: Tracer bound.
Chain of CAMK1 (Q14012 whole entry): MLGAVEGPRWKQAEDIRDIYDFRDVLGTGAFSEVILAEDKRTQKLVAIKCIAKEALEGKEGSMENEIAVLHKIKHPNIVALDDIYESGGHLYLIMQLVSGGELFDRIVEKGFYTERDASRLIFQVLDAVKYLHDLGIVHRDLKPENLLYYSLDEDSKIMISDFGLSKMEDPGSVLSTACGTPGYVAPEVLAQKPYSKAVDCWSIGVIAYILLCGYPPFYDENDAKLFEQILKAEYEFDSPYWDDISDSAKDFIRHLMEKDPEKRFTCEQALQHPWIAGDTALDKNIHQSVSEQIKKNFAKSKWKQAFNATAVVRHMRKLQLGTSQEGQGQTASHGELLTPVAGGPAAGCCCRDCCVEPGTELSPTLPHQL
The next experiment deals with T3, EPHB3 (Homo sapiens, UniProt P54753).
T3 construct: Full-length kinase ORF (Promega, Madison, WI, USA) cloned in frame with a NanoLuc-vector was transfected into HEK293T cells; host or cells: HEK293T
T3 sequence (P54753 34-998): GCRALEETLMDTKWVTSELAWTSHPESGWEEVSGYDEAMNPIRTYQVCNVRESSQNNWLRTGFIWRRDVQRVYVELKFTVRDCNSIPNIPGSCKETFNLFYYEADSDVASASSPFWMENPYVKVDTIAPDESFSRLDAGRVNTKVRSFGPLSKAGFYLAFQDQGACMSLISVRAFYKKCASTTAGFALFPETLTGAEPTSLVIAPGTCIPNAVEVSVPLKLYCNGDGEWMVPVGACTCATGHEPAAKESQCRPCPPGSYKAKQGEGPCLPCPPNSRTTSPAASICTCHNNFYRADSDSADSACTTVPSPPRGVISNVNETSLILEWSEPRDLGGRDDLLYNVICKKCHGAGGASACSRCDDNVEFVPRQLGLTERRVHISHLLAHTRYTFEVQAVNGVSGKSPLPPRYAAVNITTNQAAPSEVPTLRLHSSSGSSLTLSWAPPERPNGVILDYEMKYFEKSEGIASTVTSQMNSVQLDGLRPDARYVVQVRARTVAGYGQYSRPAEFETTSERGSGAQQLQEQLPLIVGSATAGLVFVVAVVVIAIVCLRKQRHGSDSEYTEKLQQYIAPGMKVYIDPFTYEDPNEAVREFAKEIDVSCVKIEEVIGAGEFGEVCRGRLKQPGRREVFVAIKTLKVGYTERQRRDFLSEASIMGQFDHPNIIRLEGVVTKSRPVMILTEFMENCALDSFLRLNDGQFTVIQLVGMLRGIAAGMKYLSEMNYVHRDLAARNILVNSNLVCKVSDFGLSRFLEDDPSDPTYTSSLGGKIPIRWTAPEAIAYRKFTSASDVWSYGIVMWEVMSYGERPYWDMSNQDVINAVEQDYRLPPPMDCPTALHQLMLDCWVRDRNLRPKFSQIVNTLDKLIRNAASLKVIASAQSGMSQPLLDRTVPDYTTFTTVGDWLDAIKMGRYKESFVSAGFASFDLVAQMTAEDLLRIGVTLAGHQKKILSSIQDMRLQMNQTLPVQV
As to the kind of experiment: NanoBRET CELLinib128. It counts as binding. Particulars: 100% no effect, 0% complete tracer displacement, read-out: Tracer bound.

In the next experiment the target is YES1 (Homo sapiens, UniProt P07947). Kind of experiment: NanoBRET CELLinib128. Particulars: read-out: Tracer bound.
For another experiment, the target named is ALK (Homo sapiens, UniProt Q9UM73). As to the kind of experiment: NanoBRET CELLinib128. To be noted: read-out: Tracer bound.
Chain of ALK (Q9UM73 19-1620): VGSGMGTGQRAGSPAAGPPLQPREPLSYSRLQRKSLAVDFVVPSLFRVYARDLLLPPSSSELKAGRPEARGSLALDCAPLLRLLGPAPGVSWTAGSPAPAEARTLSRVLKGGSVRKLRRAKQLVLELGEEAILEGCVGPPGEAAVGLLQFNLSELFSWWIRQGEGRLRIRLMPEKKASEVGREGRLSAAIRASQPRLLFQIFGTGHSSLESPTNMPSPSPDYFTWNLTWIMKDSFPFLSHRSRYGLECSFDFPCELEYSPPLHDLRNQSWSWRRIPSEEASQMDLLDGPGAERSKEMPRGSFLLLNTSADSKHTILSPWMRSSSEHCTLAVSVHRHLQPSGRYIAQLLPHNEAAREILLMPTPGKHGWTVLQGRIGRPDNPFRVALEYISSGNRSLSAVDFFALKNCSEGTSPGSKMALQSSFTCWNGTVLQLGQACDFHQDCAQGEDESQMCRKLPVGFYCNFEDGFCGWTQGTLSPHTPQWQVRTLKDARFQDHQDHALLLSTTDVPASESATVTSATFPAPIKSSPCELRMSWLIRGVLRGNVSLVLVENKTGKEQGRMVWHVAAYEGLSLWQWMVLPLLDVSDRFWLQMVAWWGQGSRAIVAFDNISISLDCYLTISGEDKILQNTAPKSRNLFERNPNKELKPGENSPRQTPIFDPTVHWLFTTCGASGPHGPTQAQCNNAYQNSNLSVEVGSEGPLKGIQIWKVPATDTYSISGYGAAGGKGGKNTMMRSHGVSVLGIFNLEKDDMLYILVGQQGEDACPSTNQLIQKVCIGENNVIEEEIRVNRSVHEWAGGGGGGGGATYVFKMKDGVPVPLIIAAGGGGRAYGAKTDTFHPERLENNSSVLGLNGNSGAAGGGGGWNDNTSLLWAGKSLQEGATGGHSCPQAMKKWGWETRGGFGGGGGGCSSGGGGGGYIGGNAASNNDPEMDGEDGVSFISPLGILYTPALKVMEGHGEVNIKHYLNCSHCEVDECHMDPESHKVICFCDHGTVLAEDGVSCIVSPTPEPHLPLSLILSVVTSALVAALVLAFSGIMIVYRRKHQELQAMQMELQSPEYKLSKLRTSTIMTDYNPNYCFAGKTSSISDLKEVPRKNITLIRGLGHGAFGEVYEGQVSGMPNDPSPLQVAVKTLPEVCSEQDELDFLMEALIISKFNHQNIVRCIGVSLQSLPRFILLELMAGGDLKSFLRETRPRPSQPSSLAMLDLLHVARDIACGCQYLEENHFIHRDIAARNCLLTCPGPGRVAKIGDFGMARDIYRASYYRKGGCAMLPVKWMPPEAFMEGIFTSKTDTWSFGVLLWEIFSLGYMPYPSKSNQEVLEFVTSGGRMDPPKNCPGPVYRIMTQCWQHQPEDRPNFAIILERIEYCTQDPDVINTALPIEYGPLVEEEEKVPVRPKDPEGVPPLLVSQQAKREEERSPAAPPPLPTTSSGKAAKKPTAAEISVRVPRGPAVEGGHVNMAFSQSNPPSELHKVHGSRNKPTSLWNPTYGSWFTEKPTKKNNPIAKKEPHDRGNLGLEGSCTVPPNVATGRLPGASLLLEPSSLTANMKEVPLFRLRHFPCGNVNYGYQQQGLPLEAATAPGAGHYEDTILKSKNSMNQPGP
In the next experiment the target is MAPK14 (Homo sapiens, UniProt Q16539). As to the kind of experiment: Global proteomics in MOLT-4 cells. Further details: global protein expression profiles of MOLT-4 cells treated with 50 nM MA191 for 5 h; endogenous in cells; host or cells: MOLT-4. Particulars: 50 nM, 5 h. It counts as cell-based. As to the method: Proteome analyses can uncover unexpected targets of PROTACs. Since AML cells with FLT3-ITD are massively damaged by MA191, we applied it to MOLT-4 cells and analyzed them by proteomics.
MOLT4 cells were lysed using a buffer (50 mM NaCl, 8 M urea, 50 mM EPPS, pH 8.5, with phosphatase and protease inhibitors) and homogenized by bead beating (3 × 30 s at 2400 strokes/min). Protein concentration was determined using the Bradford assay. Fifty micrograms of protein per sample were reduced, alkylated, and precipitated using methanol/chloroform. The dried protein pellet was resuspended in 4 M urea/50 mM HEPES (pH 7.4) and diluted to 1 M urea with 200 mM EPPS (pH 8).
Proteins were digested with LysC and trypsin (1:50, enzyme:protein) for 12 h at 37 °C. Samples were acidified to pH 2–3 with formic acid and desalted using C18 solid-phase extraction. […]
diaPASEF raw data were analyzed using DIA-NN 1.8 in library-free mode, enabling peptide/protein identification, FDR control, protein assembly, and quantification through in silico digestion and deep learning-based predictions. […] Precursor quantification used Robust LC with RT-based cross-run normalization.
Proteins with low total abundance (<2000 × number of treatments) were excluded. […] Significant differences versus control were assessed using two-sided moderated t-tests via the limma package in R framework (R Development Core Team, 2014). […]

Here are results for three compounds from PMC13210772, “Dual FLT3/MAPK14 Proteolysis-Targeting Chimera (PROTAC) Induces Potent Acute Myeloid Leukemia Cell Death” (Pharmaceuticals, 2026).

On to `Cc1ncsc1-c1ccc([C@H](C)NC(=O)[C@@H]2C[C@@H](O)CN2C(=O)[C@@H](NC(=O)CCOCCOCCOCCNC(=O)c2cc(Oc3ccc(NC(=O)Nc4cc(C(C)(C)C)on4)cc3)ccn2)C(C)(C)C)cc1` [MA49, reference compound], for which the IC50 with MOLM-13 was 4.8 ± 3.7 nM.

On to `CNC(=O)c1cc(Oc2ccc(NC(=O)Nc3cc(C(C)(C)C)on3)cc2)ccn1` [MA68, reference compound], for which the values for the Tracer bound at ULK1 and at EPHB2 were 117.4% and 49.5%, respectively. In addition, the remaining activity at 1 µM was found to be 119% at FGR; 27.7% at EPHB1; 100% at CAMK1; 44.8% at EPHB3; 77.1% on YES1; 109% on ALK.

`Cc1ncsc1-c1ccc([C@H](C)NC(=O)[C@@H]2C[C@@H](O)CN2C(=O)[C@@H](NC(=O)[C@H]2CC[C@H](C(=O)N3CCN(CCNC(=O)c4cc(Oc5ccc(NC(=O)Nc6cc(C(C)(C)C)on6)cc5)ccn4)CC3)CC2)C(C)(C)C)cc1` [MA191, 4-(4-(3-(5-(tert-Butyl)isoxazol-3-yl)ureido)phenoxy)-N-(2-(4-(trans-4-(((S)-1-((2S,4R)-4-hydroxy-2-(((S)-1-(4-(4-methylthiazol-5-yl)phenyl)ethyl)carbamoyl)pyrrolidin-1-yl)-3,3-dimethyl-1-oxobutan-2-yl)carbamoyl)cyclohexanecarbonyl)piperazin-1-yl)ethyl)picolinamide]: the “MAPK14 protein level, proteome analysis” value at MAPK14 was “striking downregulation of MAPK14”. Besides, the Tracer bound on EPHB2 turned out to be 120.0%. Further, the remaining activity at 1 µM at FGR was 120%; at EPHB1, 85.1%; at CAMK1 it was 93.6%; at EPHB3, 120%; at YES1, 120%; at ALK it was 105%.

By IC50 is commonly meant the concentration that inhibits the measured activity by half.
